# Experimental data as given in ChEMBL document CHEMBL3352069, “Thieno[2,3-b]pyridines as negative allosteric modulators of metabotropic GluR5 receptors: hit-to-lead optimization” (Bioorg Med Chem Lett, 2014).
# Legend:
# [1] = target: T1, Metabotropic glutamate receptor 5 (Rattus norvegicus, UniProt P31424); assay: Displacement of [3H]-M-MPEP from mGluR5 in rat cerebrocortical membrane preparation; format: cell membranes
# [2] = target: T1, Metabotropic glutamate receptor 5; assay: Inhibition of mGluR5 in rat embryo neuronal culture assessed as calcium level by Fluo-4/AM dye based fluorometry; format: functional
# Rattus norvegicus = assay: Anxiolytic activity in ip dosed rat assessed as increase in number of shocks measured for 30 mins Vogel punished drinking model; format: functional, organism-based
# [3] = target: Metabotropic glutamate receptor 5 (Rattus norvegicus) (UniProt P31424); assay: Displacement of [3H]-M-MPEP from mGluR5 in rat cerebrocortical membrane preparation at 1 uM; format: cell membranes
# Chain of Metabotropic glutamate receptor 5 (Rattus norvegicus) (P31424 21-1203 limits assumed): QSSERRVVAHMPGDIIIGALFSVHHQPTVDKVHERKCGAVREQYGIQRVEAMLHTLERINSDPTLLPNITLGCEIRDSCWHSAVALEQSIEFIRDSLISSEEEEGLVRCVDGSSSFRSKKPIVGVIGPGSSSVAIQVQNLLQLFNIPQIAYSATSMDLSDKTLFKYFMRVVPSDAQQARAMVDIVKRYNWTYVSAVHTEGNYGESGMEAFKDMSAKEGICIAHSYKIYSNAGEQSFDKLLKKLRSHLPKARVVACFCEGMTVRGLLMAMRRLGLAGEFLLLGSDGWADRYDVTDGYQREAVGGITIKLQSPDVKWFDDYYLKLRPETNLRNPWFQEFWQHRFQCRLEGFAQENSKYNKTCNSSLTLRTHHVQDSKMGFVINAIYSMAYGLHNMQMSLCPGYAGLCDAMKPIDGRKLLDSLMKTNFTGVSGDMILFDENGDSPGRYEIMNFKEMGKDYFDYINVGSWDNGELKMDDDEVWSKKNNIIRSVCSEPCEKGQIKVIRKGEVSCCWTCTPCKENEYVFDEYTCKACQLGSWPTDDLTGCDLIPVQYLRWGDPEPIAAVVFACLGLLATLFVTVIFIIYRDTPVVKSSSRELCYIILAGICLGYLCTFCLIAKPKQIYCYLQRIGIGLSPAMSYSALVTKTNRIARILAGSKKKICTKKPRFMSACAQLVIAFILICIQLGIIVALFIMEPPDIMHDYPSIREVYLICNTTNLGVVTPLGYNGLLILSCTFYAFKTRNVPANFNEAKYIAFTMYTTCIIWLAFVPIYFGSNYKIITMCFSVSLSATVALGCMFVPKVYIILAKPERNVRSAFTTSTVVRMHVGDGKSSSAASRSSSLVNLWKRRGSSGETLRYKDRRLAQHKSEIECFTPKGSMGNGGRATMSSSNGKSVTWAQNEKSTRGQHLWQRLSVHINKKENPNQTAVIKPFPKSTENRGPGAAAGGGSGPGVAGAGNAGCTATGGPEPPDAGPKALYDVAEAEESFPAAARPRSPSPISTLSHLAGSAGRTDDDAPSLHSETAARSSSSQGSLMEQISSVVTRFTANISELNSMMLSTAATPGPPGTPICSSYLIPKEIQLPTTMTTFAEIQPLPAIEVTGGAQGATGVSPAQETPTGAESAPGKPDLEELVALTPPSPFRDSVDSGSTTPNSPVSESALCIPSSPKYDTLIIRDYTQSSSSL
# T1 sequence (P31424 whole entry): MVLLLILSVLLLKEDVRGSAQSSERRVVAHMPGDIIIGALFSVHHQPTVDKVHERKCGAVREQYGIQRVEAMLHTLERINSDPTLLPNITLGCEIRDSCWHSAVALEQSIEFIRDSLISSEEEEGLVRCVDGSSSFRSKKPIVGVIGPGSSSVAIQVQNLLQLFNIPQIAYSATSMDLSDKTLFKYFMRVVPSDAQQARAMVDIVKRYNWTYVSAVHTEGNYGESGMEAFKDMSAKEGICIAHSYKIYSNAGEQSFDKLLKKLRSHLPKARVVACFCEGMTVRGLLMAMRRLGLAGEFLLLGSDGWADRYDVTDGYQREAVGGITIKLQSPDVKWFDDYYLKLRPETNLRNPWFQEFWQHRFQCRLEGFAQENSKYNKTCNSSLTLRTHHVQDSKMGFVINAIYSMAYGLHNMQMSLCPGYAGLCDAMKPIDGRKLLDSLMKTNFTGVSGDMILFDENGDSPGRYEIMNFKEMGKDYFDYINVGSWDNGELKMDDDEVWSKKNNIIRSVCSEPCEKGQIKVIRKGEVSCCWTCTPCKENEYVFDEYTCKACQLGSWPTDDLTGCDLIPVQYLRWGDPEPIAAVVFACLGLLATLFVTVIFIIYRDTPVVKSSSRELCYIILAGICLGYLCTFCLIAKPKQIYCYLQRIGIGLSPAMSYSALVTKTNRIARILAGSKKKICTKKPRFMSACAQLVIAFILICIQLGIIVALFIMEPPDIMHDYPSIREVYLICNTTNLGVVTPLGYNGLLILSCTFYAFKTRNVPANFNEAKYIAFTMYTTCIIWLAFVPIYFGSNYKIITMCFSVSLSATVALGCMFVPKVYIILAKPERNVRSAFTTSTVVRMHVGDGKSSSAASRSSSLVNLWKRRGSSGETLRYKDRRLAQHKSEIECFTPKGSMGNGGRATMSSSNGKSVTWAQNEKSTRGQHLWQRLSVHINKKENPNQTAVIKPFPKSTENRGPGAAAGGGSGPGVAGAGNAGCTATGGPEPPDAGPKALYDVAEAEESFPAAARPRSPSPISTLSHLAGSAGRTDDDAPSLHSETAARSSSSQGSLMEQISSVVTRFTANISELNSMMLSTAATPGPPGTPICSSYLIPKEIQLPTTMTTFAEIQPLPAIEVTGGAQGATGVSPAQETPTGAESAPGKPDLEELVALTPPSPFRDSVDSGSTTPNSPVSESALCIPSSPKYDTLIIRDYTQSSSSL
Compound,Ki [1] [nM],inhibition [3] [%],further results
O=S(=O)(c1ccc(Cl)cc1)c1sc2ncccc2c1-c1ccc(Cl)cc1,12.3,–,IC50 [2]: 46 nM; Activity (Rattus norvegicus): Dose-dependent effect
CN(Cc1ccc(F)cc1)C(=O)c1sc2ncccc2c1-c1ccc(Cl)cc1,–,13,–
CC(=O)c1sc2ncccc2c1-c1ccccc1,–,17,–
Fc1ccc(-c2c(C3=NOC(c4ccc(F)cc4)C3)sc3ncccc23)cc1 (stereo not given),–,52,–
Fc1ccc(-c2nnc(-c3sc4ncccc4c3-c3ccc(Cl)cc3)o2)cc1,–,24,–
O=C(Nc1ccc(F)cc1)c1sc2ncccc2c1-c1ccc(Cl)cc1,–,0,–
O=C(CCc1ccccc1)c1sccc1-c1ccccc1,–,0,–
O=C(Oc1ccc(F)cc1)c1sc2ncccc2c1-c1ccc(Cl)cc1,–,15,–
c1ccc(-c2csc3ncccc23)cc1,–,0,–
O=C(CCc1ccccc1)c1sc2ncccc2c1-c1ccccc1,730,–,IC50 [2]: 3300 nM
O=C(c1ccc(Cl)cc1)c1sc2ncccc2c1-c1ccc(F)cc1,–,30,–
Fc1ccc(-c2nc(-c3sc4ncccc4c3-c3ccc(Cl)cc3)no2)cc1,–,0,–

# Second part, led by results:
Ki [1] [nM],inhibition [3] [%],Compound,further results
41,–,O=C(OCc1ccc(F)cc1)c1sc2ncccc2c1-c1ccc(Cl)cc1,IC50 [2]: 150 nM
–,19,CN(C(=O)c1sc2ncccc2c1-c1ccc(F)cc1)c1ccc(F)cc1,–
83,–,O=C(Cc1ccc(F)cc1)c1sc2ncccc2c1-c1ccc(Cl)cc1,IC50 [2]: 350 nM
311,–,O=C(NCc1ccc(F)cc1)c1sc2ncccc2c1-c1ccc(F)cc1,–
–,12,Fc1ccc(C/C=C/c2sc3ncccc3c2-c2ccc(F)cc2)cc1,–
180,–,O=C(CCc1ccc(F)cc1)c1sc2ncccc2c1-c1ccc(F)cc1,IC50 [2]: 1000 nM
–,3,OC(CCc1ccc(F)cc1)c1sc2ncccc2c1-c1ccc(F)cc1 (stereo not given),–
343,–,O=C(CCc1ccc(F)cc1)c1sc2ncccc2c1-c1ccccc1,IC50 [2]: 2100 nM
2500,–,COc1ccc(CCC(=O)c2sc3ncccc3c2-c2ccccc2)cc1,IC50 [2]: 8000 nM
140,–,O=C(Cc1ccc(F)cc1)c1sc2ncccc2c1-c1ccc(F)cc1,–
–,0,Fc1ccc(CCCc2sc3ncccc3c2-c2ccc(F)cc2)cc1,–
224,–,O=C(CCc1cccc(F)c1)c1sc2ncccc2c1-c1ccc(F)cc1,–
–,4,O=C(CCc1ccc(F)cc1)c1[nH]c2ccccc2c1-c1ccc(F)cc1,–
–,8,O=C(CCc1ccc(F)cc1)c1sc2ccccc2c1-c1ccc(F)cc1,–
–,0,O=C(CCc1ccccc1)c1sccc1-c1ccc(F)cc1,–
